Residues, ends and D or L forms follow the SMILES beside them.
What was measured:
trypsin-1 = trypsin-1 (Homo sapiens, UniProt P07477); assay: Cleavage of peptides by purified trypsin-1, MALDI-TOF/TOF; conditions: 25 nM protease, 10 µM peptide; for Incubation time at which the first cleavage or decrease of the full-length peptide was observed, trypsin-1: 37 °C, time points 2, 5, 10, 30 min
From the text: (§1) Trypsin-like proteases included in the experiments are trypsin-1, -2 and -3, tryptase (Enzo LifeSciences), thrombin (Sigma-Aldrich) and cathepsin G (Sigma-Aldrich). Trypsin-1, -2 and -3 were produced as described by Koistinen et al. and Wu et al.. Two elastase-like enzymes, neutrophil elastase (Enzo LifeSciences, Farmingdale, NY, USA) and pancreatic elastase I (Sigma-Aldrich) were included as well. All enzymes were from human origin except for pancreatic elastase from porcine pancreas.
(§2) Reaction mixtures with purified enzymes were compiled in an identical way. Each mixture contained an equimolar concentration of protease (25 nM based on) and 10 µM peptide of interest and was incubated for 2, 5, 10 and 30 min at 37 °C. Substance P was added as the standard peptide except for the reaction mixtures with substance P or bradykinin as the peptide of interest, where angiotensin II (Bachem) was added.
(§3) The TFA mixtures were thawed on ice and desalted using C18 zip-tips (Merck Millipore®, Burlington, MA, USA) with a capacity of 5 µg protein. Retained peptide fragments were eluted directly on the MALDI target plate. Next, 0.5 µL of a 2.5 mg/mL α-cyano-4-hydroxycinnamic acid (Sigma-Aldrich) matrix solution (in 70% acetonitrile, 0.1% TFA) was spotted on top of the sample. A 6-Peptide mixture Kit (AB Sciex, Framingham, MA, USA) containing bradykinin (2–9), angiotensin I, glu1-fibrinopeptide, ACTH (1–17), ACTH (18–39) and ACTH (7–38) was diluted with matrix and spotted on the plate as well.
(§4) MS and MS/MS data for peptide fragment identification were obtained with a MALDI-TOF/TOF instrument (4800 MALDI TOF/TOF™, Applied Biosystems, Waltham, MA, USA) and instrument parameters were set using 4000 Series Explorer™ software. MS spectra were recorded in positive reflector mode in a mass range from 500 to 4000 Da and laser intensity of 4500–4800 Hz. The spectra were calibrated using the calibration mixture mentioned above to a mass tolerance of 0.1 Da. MS/MS spectra were recorded with high-energy collision-induced dissociation and the laser intensity was increased by 10%. Precursor mass m/z 1570.65 (Glu1-Fibrinopeptide from the calibration mixture) was used to calibrate the MS/MS spectra to a mass tolerance of 0.1 Da.
(§5) MS and MS/MS spectra were processed using DataExplorer™ software and the obtained output files were uploaded in the MS-PEP data analyzer (https://bioit.shinyapps.io/PARs/ accessed 10/08/2020) for peptide fragment identification. Identified fragments were confirmed using the MS/MS spectra and mMass 5.5.0 by Martin Strohalm. The relative intensities of the fragments were calculated as the ratio of the intensity of the peak of interest to the intensity of the peak of the standard peptide.

trypsin-2 = trypsin-2 (Homo sapiens, UniProt P07478); assay: Cleavage of peptides by purified trypsin-2, MALDI-TOF/TOF; conditions: 25 nM protease, 10 µM peptide; for Incubation time at which the first cleavage or decrease of the full-length peptide was observed, trypsin-2: 37 °C, time points 2, 5, 10, 30 min
From the text: as §1, §2, §3, §4, §5

trypsin-3 = target: T1, trypsin-3 (Homo sapiens, UniProt P35030); assay: Cleavage of peptides by purified trypsin-3, MALDI-TOF/TOF; conditions: 25 nM protease, 10 µM peptide; for Incubation time at which the first cleavage or decrease of the full-length peptide was observed, trypsin-3: 37 °C, time points 2, 5, 10, 30 min
T1 sequence (P35030 1-304): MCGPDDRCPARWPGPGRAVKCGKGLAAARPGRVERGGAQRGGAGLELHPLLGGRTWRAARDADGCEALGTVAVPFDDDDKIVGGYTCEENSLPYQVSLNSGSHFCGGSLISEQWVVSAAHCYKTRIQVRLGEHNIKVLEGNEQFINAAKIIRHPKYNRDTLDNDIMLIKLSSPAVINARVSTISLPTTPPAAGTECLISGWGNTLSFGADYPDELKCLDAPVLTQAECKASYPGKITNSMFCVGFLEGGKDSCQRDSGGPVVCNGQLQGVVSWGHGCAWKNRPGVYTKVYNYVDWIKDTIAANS
From the text: as §1, §2, §3, §4, §5

tryptase = tryptase (Homo sapiens, UniProt Q15661); assay: Cleavage of peptides by purified tryptase, MALDI-TOF/TOF; conditions: 25 nM protease, 10 µM peptide; for Incubation time at which the first cleavage or decrease of the full-length peptide was observed, tryptase: 37 °C, time points 2, 5, 10, 30 min
From the text: as §1, §2, §3, §4, §5

thrombin = thrombin (Homo sapiens, UniProt P00734); assay: Cleavage of peptides by purified thrombin, MALDI-TOF/TOF; conditions: 25 nM protease, 10 µM peptide; for Incubation time at which the first cleavage or decrease of the full-length peptide was observed, thrombin: 37 °C, time points 2, 5, 10, 30 min
From the text: as §1, §2, §3, §4, §5

cathepsin G = target: T2, cathepsin G (Homo sapiens, UniProt P08311); assay: Cleavage of peptides by purified cathepsin G, MALDI-TOF/TOF; conditions: 25 nM protease, 10 µM peptide
T2 sequence (P08311 21-255): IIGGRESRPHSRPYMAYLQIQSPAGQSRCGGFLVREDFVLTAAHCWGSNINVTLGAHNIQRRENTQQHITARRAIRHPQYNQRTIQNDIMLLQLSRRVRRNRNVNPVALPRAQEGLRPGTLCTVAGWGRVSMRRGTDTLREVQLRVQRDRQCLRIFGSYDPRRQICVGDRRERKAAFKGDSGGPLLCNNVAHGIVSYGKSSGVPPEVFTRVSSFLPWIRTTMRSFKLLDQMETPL
From the text: as §1
(§6) Reaction mixtures with purified enzymes were compiled in an identical way. […] Substance P was added as the standard peptide except for the reaction mixtures with substance P or bradykinin as the peptide of interest, where angiotensin II (Bachem) was added.
as §3
(§7) MS and MS/MS data for peptide fragment identification were obtained with a MALDI-TOF/TOF instrument (4800 MALDI TOF/TOF™, Applied Biosystems, Waltham, MA, USA) and instrument parameters were set using 4000 Series Explorer™ software. MS spectra were recorded in positive reflector mode in a mass range from 500 to 4000 Da and laser intensity of 4500–4800 Hz. The spectra were calibrated using the calibration mixture mentioned above to a mass tolerance of 0.1 Da. MS/MS spectra were recorded with high-energy collision-induced dissociation and the laser intensity was increased by 10%.
(§8) Identified fragments were confirmed using the MS/MS spectra and mMass 5.5.0 by Martin Strohalm. The relative intensities of the fragments were calculated as the ratio of the intensity of the peak of interest to the intensity of the peak of the standard peptide.

neutrophil elastase = target: T3, neutrophil elastase (Homo sapiens, UniProt P08246); assay: Cleavage of peptides by purified neutrophil elastase, MALDI-TOF/TOF; conditions: 25 nM protease, 10 µM peptide; for Incubation time at which the first cleavage or decrease of the full-length peptide was observed, neutrophil elastase: 37 °C, time points 2, 5, 10, 30 min
T3 sequence (P08246 30-267): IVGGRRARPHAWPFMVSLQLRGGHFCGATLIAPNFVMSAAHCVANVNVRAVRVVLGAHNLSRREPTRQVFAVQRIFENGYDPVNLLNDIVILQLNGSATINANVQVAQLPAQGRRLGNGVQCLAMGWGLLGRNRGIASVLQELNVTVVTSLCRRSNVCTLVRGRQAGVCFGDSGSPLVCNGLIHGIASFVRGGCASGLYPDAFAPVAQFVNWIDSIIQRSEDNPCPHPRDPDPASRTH
From the text: as §1, §6, §3, §7, §8

pancreatic elastase I = pancreatic elastase I (Sus scrofa, UniProt P00772); assay: Cleavage of peptides by purified pancreatic elastase, MALDI-TOF/TOF; conditions: 25 nM protease, 10 µM peptide; for Incubation time at which the first cleavage or decrease of the full-length peptide was observed, pancreatic elastase: 37 °C, time points 2, 5, 10, 30 min
From the text: as §1, §6, §3, §7, §8

[1] = 37 °C, 2, 5, 10 and 30 min, stopped with 2% TFA
[2] = PAR-based peptides, 37 °C, 2, 5, 10 and 30 min

Chain of pancreatic elastase I (P00772 27-266): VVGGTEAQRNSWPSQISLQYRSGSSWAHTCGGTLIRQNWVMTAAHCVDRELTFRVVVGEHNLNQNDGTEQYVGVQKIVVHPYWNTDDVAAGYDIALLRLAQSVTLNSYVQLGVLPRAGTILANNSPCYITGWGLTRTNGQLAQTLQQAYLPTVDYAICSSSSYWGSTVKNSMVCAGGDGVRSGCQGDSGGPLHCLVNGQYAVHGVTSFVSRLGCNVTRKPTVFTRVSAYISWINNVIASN
Chain of trypsin-2 (P07478 24-247): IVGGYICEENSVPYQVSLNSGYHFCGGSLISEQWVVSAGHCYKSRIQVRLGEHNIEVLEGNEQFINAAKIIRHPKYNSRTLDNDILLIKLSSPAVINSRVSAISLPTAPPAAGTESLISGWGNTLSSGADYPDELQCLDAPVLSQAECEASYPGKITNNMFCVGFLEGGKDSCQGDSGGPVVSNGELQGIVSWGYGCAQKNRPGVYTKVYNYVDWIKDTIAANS
Chain of tryptase (Q15661 31-275): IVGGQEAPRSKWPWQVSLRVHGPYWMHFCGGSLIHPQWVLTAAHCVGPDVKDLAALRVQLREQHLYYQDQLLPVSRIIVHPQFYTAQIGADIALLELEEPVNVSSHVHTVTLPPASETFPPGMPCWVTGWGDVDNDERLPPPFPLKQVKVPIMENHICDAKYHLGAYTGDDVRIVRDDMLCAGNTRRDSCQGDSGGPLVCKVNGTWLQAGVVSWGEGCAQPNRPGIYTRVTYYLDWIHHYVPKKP

SMILES: CC[C@H](C)[C@H](NC(=O)[C@H](CO)NC(=O)[C@H](CC(N)=O)NC(=O)[C@H](CC(C)C)NC(=O)[C@H](Cc1ccc(O)cc1)NC(=O)[C@H](CCCCN)NC(=O)[C@H](CCCCN)NC(=O)[C@@H](NC(=O)[C@H](C)NC(=O)[C@H](CCSC)NC(=O)[C@H](CCC(N)=O)NC(=O)[C@H](CCCCN)NC(=O)[C@H](CCCN=C(N)N)NC(=O)[C@H](CC(C)C)NC(=O)[C@H](CCCN=C(N)N)NC(=O)[C@@H](NC(=O)[C@H](Cc1ccc(O)cc1)NC(=O)[C@H](CC(N)=O)NC(=O)[C@H](CC(=O)O)NC(=O)[C@@H](NC(=O)[C@H](Cc1ccccc1)NC(=O)[C@@H](NC(=O)[C@H](C)NC(=O)[C@H](CC(=O)O)NC(=O)[C@H](CO)NC(=O)[C@@H](N)Cc1c[nH]cn1)C(C)C)[C@@H](C)O)[C@@H](C)O)C(C)C)C(=O)N[C@@H](CC(C)C)C(=O)N[C@@H](CC(N)=O)C(N)=O [VIP, Vasoactive intestinal peptide]
- Efficiency of the first cleavage in the peptide, Trypsin-1 (trypsin-1; [1]): +++ (ultrafast processing within 2 min)
- Incubation time at which the first cleavage or decrease of the full-length peptide was observed, trypsin-1 (trypsin-1): 2 min
- Efficiency of the first cleavage in the peptide, Trypsin-2 (trypsin-2; [1]): +++ (ultrafast processing within 2 min)
- Incubation time at which the first cleavage or decrease of the full-length peptide was observed, trypsin-2 (trypsin-2): 2 min
- Efficiency of the first cleavage in the peptide, Trypsin-3 (trypsin-3; [1]): +++ (ultrafast processing within 2 min)
- Incubation time at which the first cleavage or decrease of the full-length peptide was observed, trypsin-3 (trypsin-3): 2 min
- Efficiency of the first cleavage in the peptide, Tryptase (tryptase; [1]): +++ (ultrafast processing within 2 min)
- Incubation time at which the first cleavage or decrease of the full-length peptide was observed, tryptase (tryptase): 2 min
- Efficiency of the first cleavage in the peptide, Thrombin (thrombin; [1]): −
- Incubation time at which the first cleavage or decrease of the full-length peptide was observed, thrombin (thrombin): > 30 min
- Efficiency of the first cleavage in the peptide, Cathepsin G (cathepsin G; [1]): +++ (ultrafast processing within 2 min)
- Efficiency of the first cleavage in the peptide, Neutrophil Elastase (neutrophil elastase; [1]): +++ (ultrafast processing within 2 min)
- Incubation time at which the first cleavage or decrease of the full-length peptide was observed, neutrophil elastase (neutrophil elastase): 2 min
- Efficiency of the first cleavage in the peptide, Pancreatic Elastase (pancreatic elastase I; [1]): +++ (ultrafast processing within 2 min)
- Incubation time at which the first cleavage or decrease of the full-length peptide was observed, pancreatic elastase (pancreatic elastase I): 2 min

SMILES: CC[C@H](C)[C@H](NC(=O)[C@H](CO)NC(=O)[C@@H]1CCCN1C(=O)[C@@H](NC(=O)[C@H](CO)NC(=O)[C@H](CC(=O)O)NC(=O)[C@H](CC(=O)O)NC(=O)CNC(=O)CNC(=O)CNC(=O)[C@@H](NC(=O)[C@H](CO)NC(=O)CNC(=O)[C@H](CO)NC(=O)[C@H](CCC(=O)O)NC(=O)[C@H](CC(=O)O)NC(=O)[C@H](Cc1ccc(O)cc1)NC(=O)[C@@H](NC(=O)[C@H](CO)NC(=O)[C@@H]1CCCN1C(=O)[C@@H](NC(=O)[C@H](CCC(N)=O)NC(=O)[C@@H](NC(=O)CNC(=O)CN)[C@@H](C)O)[C@@H](C)O)C(C)C)[C@@H](C)O)[C@@H](C)O)C(=O)N[C@@H](CC(C)C)C(=O)N1CCC[C@H]1C(=O)N[C@@H](C)C(=O)N1CCC[C@H]1C(=O)N[C@@H](CCCNC(=N)N)C(=O)NCC(=O)N[C@@H](Cc1ccc(O)cc1)C(=O)N1CCC[C@H]1C(=O)NCC(=O)N[C@@H](CCC(N)=O)C(=O)N[C@H](C(=O)N[C@@H](CS)C(=O)N[C@@H](C)C(=O)N[C@@H](CC(N)=O)C(=O)N[C@@H](CC(=O)O)C(N)=O)C(C)C [PAR4-based] (H-GGTQTPSVYDESGSTGGGDDSTPSILPAPRGYPGQVCAND-NH2)
- Incubation time at which the first cleavage or decrease of the full-length peptide was observed, trypsin-1 (trypsin-1): 2 min
- TL disarming (D), Trypsin-1 (trypsin-1; [2]): −
- TL unmasking (U), Trypsin-1 (trypsin-1; [2]): +++ (ultrafast processing within 2 min)
- Incubation time at which the first cleavage or decrease of the full-length peptide was observed, trypsin-2 (trypsin-2): 2 min
- TL disarming (D), Trypsin-2 (trypsin-2; [2]): −
- TL unmasking (U), Trypsin-2 (trypsin-2; [2]): +++ (ultrafast processing within 2 min)
- Incubation time at which the first cleavage or decrease of the full-length peptide was observed, trypsin-3 (trypsin-3): 2 min
- TL disarming (D), Trypsin-3 (trypsin-3; [2]): −
- TL unmasking (U), Trypsin-3 (trypsin-3; [2]): +++ (ultrafast processing within 2 min)
- Incubation time at which the first cleavage or decrease of the full-length peptide was observed, tryptase (tryptase): > 30 min
- TL disarming (D), Tryptase (tryptase; [2]): −
- TL unmasking (U), Tryptase (tryptase; [2]): −
- Incubation time at which the first cleavage or decrease of the full-length peptide was observed, thrombin (thrombin): 2 min
- TL disarming (D), Thrombin (thrombin; [2]): −
- TL unmasking (U), Thrombin (thrombin; [2]): +++ (ultrafast processing within 2 min)
- Incubation time at which the first cleavage or decrease of the full-length peptide was observed, cathepsin G (cathepsin G; 37 °C, time points 2, 5, 10, 30 min): > 30 min
- TL disarming (D), Cathepsin G (cathepsin G; [2]): −
- TL unmasking (U), Cathepsin G (cathepsin G; [2]): −
- Incubation time at which the first cleavage or decrease of the full-length peptide was observed, neutrophil elastase (neutrophil elastase): > 30 min
- TL disarming (D), Neutrophil Elastase (neutrophil elastase; [2]): −
- TL unmasking (U), Neutrophil Elastase (neutrophil elastase; [2]): −
- Incubation time at which the first cleavage or decrease of the full-length peptide was observed, pancreatic elastase (pancreatic elastase I): > 30 min
- TL disarming (D), Pancreatic Elastase (pancreatic elastase I; [2]): −
- TL unmasking (U), Pancreatic Elastase (pancreatic elastase I; [2]): −

From PMC8509398, “Proteolytic Cleavage of Bioactive Peptides and Protease-Activated Receptors in Acute and Post-Colitis” (International Journal of Molecular Sciences, 2021)
